Values of other authors as cited in patent US20260102357A1, “Sulfur-Containing Ionizable Lipids for the Delivery of Therapeutic Agents” (NanoVation Therapeutics Inc., priority 2022, published 2026).

Settings: delivery of siRNA; fold less siRNA than KC2

## CCCCC/C=C\C/C=C\CCCCCCCCC(CCCCCCCC/C=C\C/C=C\CCCCC)OC(=O)CCCN(C)C [MC3, DLin-MC3-DMA]
  siRNA required relative to KC2: about 3 times less
